≈ marks a conversion by molar mass, not a printed value.
How the values were obtained:
E. cloacae 8 = assay: MIC, twofold microdilution, clinical strain; format: cell-based, Escherichia cloacae; conditions: Enterobacter cloacae, 8; clinical strain, 18 h
S. aureus T5591 = assay: MIC, twofold microdilution, clinical strain; format: cell-based, Staphylococcus aureus; conditions: Staphylococcus aureus, T5591, 18 h
S. epidermidis KR4243/1 = assay: MIC, twofold microdilution, clinical strain; format: cell-based; conditions: Staphylococcus epidermidis, 18 h
S. pasteuri KR 4358 = assay: MIC, twofold microdilution, clinical strain; format: cell-based; conditions: Staphylococcus pasteuri, KR4358, 18 h
K. pneumoniae 28 = assay: MIC, twofold microdilution, clinical strain; format: cell-based; conditions: Klebsiella pneumoniae, 18 h
P. aeruginosa 659 = assay: MIC, twofold microdilution, clinical strain; format: cell-based; conditions: Pseudomonas aeruginosa, 18 h
S. aureus ATCC 29213 = assay: MIC, twofold microdilution, standard strain; format: cell-based; conditions: Staphylococcus aureus, ATCC29213, 18 h
PC3 cells = assay: MTT assay, cytotoxic activity; format: cell-based, human; conditions: Homo sapiens, PC-3, 72 h, MTT, 72 h
Description: Metastatic prostate cancer (PC3) and human immortal keratinocyte (HaCaT) cell lines were purchased from the American Type Culture Collection (ATCC, Rockville, MD, USA) and cultured in MEM (minimal essential medium, Thermo Sci, USA), RPMI 1640 (Roswell Park Memorial Institute, Biowest SAS, France), and DMEM (Dulbecco’s Modified Eagle’s Medium, Biowest SAS, France). Cells were seeded in 6 mL medium in a tissue culture flask (50 mL) in a 37 °C/5% CO2 humidified incubator. […] MTT analysis was performed according to a previous study.[59] Untreated cells were used as controls. Cell absorbance results were inserted into the formula for the relative MTT level (%). It allows to calculate the viability of cells under the influence of the tested compounds. Cell viability was expressed as the percentage of MTT reduction in cells treated with tested compounds compared to the control sample. The relative MTT level was calculated using the formula [100%] = A/B × 100% where A—the test sample absorbance and B—the control sample absorbance.

E. coli ATCC 25922 = assay: MIC, twofold microdilution, standard strain; format: cell-based, Escherichia coli; conditions: Escherichia coli, ATCC25922; standard strain, 18 h
E. coli 520 = assay: MIC, twofold microdilution, clinical strain; format: cell-based; conditions: Escherichia coli, 18 h
[1] = system: P. aeruginosa ATCC 15442 and E. coli ATCC 25922; assay: MIC, standard Gram-negative rods as a panel; format: cell-based; conditions: P. aeruginosa ATCC 15442, E. coli ATCC 25922; read-out: MIC against standard Gram-negative rods (range over strains)
S. aureus 180 = assay: MIC, twofold microdilution, clinical strain; format: cell-based; conditions: Staphylococcus aureus, 18 h
E. coli 600 = assay: MIC, twofold microdilution, clinical strain; format: cell-based, Escherichia coli; conditions: Escherichia coli, 600, 18 h
[2] = system: Staphylococci (standard strains); assay: MIC, standard Gram-positive strains as a panel; format: cell-based, S. aureus, S. epidermidis; conditions: standard Gram-positive strains of Table 1; read-out: MIC toward standard Staphylococci (range over strains)
S. aureus T5595 = assay: MIC, twofold microdilution, clinical strain; format: cell-based, Staphylococcus aureus; conditions: Staphylococcus aureus, T5595, 18 h
[3] = system: S. epidermidis ATCC 35984; assay: MIC, twofold microdilution, standard strain; format: cell-based; conditions: Staphylococcus epidermidis, ATCC35984, 18 h
K. pneumoniae 510 = assay: MIC, twofold microdilution, clinical strain; format: cell-based, Klebsiella pneumoniae; conditions: Klebsiella pneumoniae, 510; clinical strain, 18 h
P. aeruginosa 37 = assay: MIC, twofold microdilution, clinical strain; format: cell-based; conditions: Pseudomonas aeruginosa, 18 h
M. tuberculosis H37Rv = assay: Tuberculostatic activity, Microplate Alamar Blue Assay (MIC); format: cell-based, Mycobacterium tuberculosis; conditions: Mycobacterium tuberculosis, H37RV; MABA; read-out: MIC M. tuberculosis H37Rv
S. aureus NCTC 4163 = assay: MIC, twofold microdilution, standard strain; format: cell-based; conditions: Staphylococcus aureus, NCTC4163, 18 h
E. coli 951 = assay: MIC, twofold microdilution, clinical strain; format: cell-based; conditions: Escherichia coli, 18 h
[4] = system: M. tuberculosis Spec. 192; assay: Tuberculostatic activity, Microplate Alamar Blue Assay (MIC); format: cell-based; conditions: Mycobacterium tuberculosis, MABA, read-out: MIC M. tuberculosis Spec. 192 (sensitive to tuberculostatics)
S. aureus ATCC 6538 = assay: MIC, twofold microdilution, standard strain; format: cell-based, Staphylococcus aureus; conditions: Staphylococcus aureus, ATCC6538; standard strain, 18 h
[5] = system: S. epidermidis ATCC 12228; assay: MIC, twofold microdilution, standard strain; format: cell-based; conditions: Staphylococcus epidermidis, ATCC12228, 18 h
S. epidermidis 4341 = assay: MIC, twofold microdilution, clinical strain; format: cell-based; conditions: Staphylococcus epidermidis, 18 h
S. aureus ATCC 25923 = assay: MIC, twofold microdilution, standard strain; format: cell-based; conditions: Staphylococcus aureus, ATCC25923, 18 h
[6] = MTT assay, cytotoxic activity; format: cell-based; conditions: human, HaCaT cells (immortal keratinocytes); MTT, 72 h, normal cell line; read-out: IC50 HaCaT
Description: Cells were seeded in 6 mL medium in a tissue culture flask (50 mL) in a 37 °C/5% CO2 humidified incubator. […] MTT analysis was performed according to a previous study.[59] Untreated cells were used as controls. Cell absorbance results were inserted into the formula for the relative MTT level (%). It allows to calculate the viability of cells under the influence of the tested compounds. Cell viability was expressed as the percentage of MTT reduction in cells treated with tested compounds compared to the control sample. The relative MTT level was calculated using the formula [100%] = A/B × 100% where A—the test sample absorbance and B—the control sample absorbance.

S. epidermidis 5253 = assay: MIC, twofold microdilution, clinical strain; format: cell-based, Staphylococcus epidermidis; conditions: for MIC: Staphylococcus epidermidis, 5253, 18 h
[7] = system: clinical bacterial strains; assay: MIC, clinical isolates as groups of strains; format: cell-based
S. aureus 5595 = assay: MIC, twofold microdilution, clinical strain; format: cell-based; conditions: Staphylococcus aureus, 18 h
P. aeruginosa ATCC 15442 = assay: MIC, twofold microdilution, standard strain; format: cell-based, Pseudomonas aeruginosa; conditions: Pseudomonas aeruginosa, ATCC15442; standard strain, 18 h
M. tuberculosis Spec 210 = assay: microbe, parasite or virus in culture; format: cell-based, Mycobacterium tuberculosis; conditions: M. tuberculosis Spec. 210

Row | SMILES | MIC (E. cloacae 8) | MIC (S. aureus T5591) | MIC (S. epidermidis KR4243/1) | MIC (S. pasteuri KR 4358) | MIC (K. pneumoniae 28) | MIC (P. aeruginosa 659) | MIC (S. aureus ATCC 29213) | IC50 (PC3 cells) | MIC (E. coli ATCC 25922) | MIC (E. coli 520) | MIC [1] | MIC (S. aureus 180) | MIC (E. coli 600) | MIC (S. aureus T5595) | MIC [3] | MIC (K. pneumoniae 510) | MIC (P. aeruginosa 37) | MIC (M. tuberculosis H37Rv) | MIC (S. aureus NCTC 4163) | MIC (E. coli 951) | other results
1 | O=C(O)c1cn(C2CC2)c2cc(N3CCN(C(=O)CCCCCCl)CC3)c(F)cc2c1=O [Compound 7, 7-[4-(6-Chlorohexanoyl)-piperazin-1-yl]-1-cyclopropyl-6-fluoro-4-oxo-1,4-dihydro-quinoline-3-carboxylic Acid] | 16 µg/mL (≈ 34.5 µM) | 0.4 µg/mL (≈ 0.862 µM) | 0.2 µg/mL (≈ 0.431 µM) | 0.2 µg/mL (≈ 0.431 µM) | > 25.6 µg/mL | > 25.6 µg/mL | 0.2 µg/mL (≈ 0.431 µM) | > 100 µM | 0.8 µg/mL (≈ 1.72 µM) | 6.4 µg/mL (≈ 13.8 µM) | ≤ 1 µg/mL | 0.5 µg/mL (≈ 1.08 µM) | 6.4 µg/mL (≈ 13.8 µM) | 0.4 µg/mL (≈ 0.862 µM) | 0.2 µg/mL (≈ 0.431 µM) | > 25.6 µg/mL | > 25.6 µg/mL | 0.5 µg/mL (≈ 1.08 µM) | 0.2 µg/mL (≈ 0.431 µM) | > 25.6 µg/mL | MIC [2]: 0.1 to 0.8 µg/mL (≈ 0.216 to 1.72 µM); MIC [4]: 0.5 µg/mL (≈ 1.08 µM); MIC (S. aureus ATCC 6538): 0.2 µg/mL (≈ 0.431 µM); MIC [5]: 0.4 µg/mL (≈ 0.862 µM); MIC (S. epidermidis 4341): 25.6 µg/mL (≈ 55.2 µM); MIC (S. aureus ATCC 25923): 0.2 µg/mL (≈ 0.431 µM); IC50 at 72 h [6]: > 100 µM; MIC (S. epidermidis 5253): > 25.6 µg/mL; share of the reference (CP) activity ([7]; S. aureus T5595 and T5591): 62.5%; MIC (S. aureus 5595): 0.5 µg/mL (≈ 1.08 µM); MIC (P. aeruginosa ATCC 15442): 12.8 µg/mL (≈ 27.6 µM)
2 | O=C(O)c1cn(C2CC2)c2cc(N3CCN(C(=O)CBr)CC3)c(F)cc2c1=O [Compound 8, 7-[4-(2-Bromoacetyl)-piperazin-1-yl]-1-cyclopropyl-6-fluoro-4-oxo-1,4-dihydro-quinoline-3-carboxylic Acid] | 0.8 µg/mL (≈ 1.77 µM) | 1.6 µg/mL (≈ 3.54 µM) | 0.4 µg/mL (≈ 0.884 µM) | 0.2 µg/mL (≈ 0.442 µM) | > 25.6 µg/mL | 6.4 µg/mL (≈ 14.2 µM) | 0.4 µg/mL (≈ 0.884 µM) | 39.6 ± 4.3 µM | 0.2 µg/mL (≈ 0.442 µM) | 0.2 µg/mL (≈ 0.442 µM) | ≤ 1 µg/mL | 0.8 µg/mL (≈ 1.77 µM) | 0.2 µg/mL (≈ 0.442 µM) | 0.8 µg/mL (≈ 1.77 µM) | 0.2 µg/mL (≈ 0.442 µM) | 25.6 µg/mL (≈ 56.6 µM) | 12.8 µg/mL (≈ 28.3 µM) | 32 µg/mL (≈ 70.8 µM) | 0.2 µg/mL (≈ 0.442 µM) | 6.4 µg/mL (≈ 14.2 µM) | MIC [4]: 32 µg/mL (≈ 70.8 µM); MIC (S. aureus ATCC 6538): 0.2 µg/mL (≈ 0.442 µM); MIC [5]: 0.2 µg/mL (≈ 0.442 µM); MIC (S. epidermidis 4341): 12.8 µg/mL (≈ 28.3 µM); MIC (S. aureus ATCC 25923): 0.2 µg/mL (≈ 0.442 µM); fold more effective than the reference tuberculostatics (M. tuberculosis Spec 210): 2–8 fold; IC50 at 72 h [6]: 44.9 ± 9 µM; MIC S. epidermidis 5253 (S. epidermidis 5253; 18 h): 25.6 µg/mL (≈ 56.6 µM); MIC (S. epidermidis 5253): 12.8 to 25.6 µg/mL (≈ 28.3 to 56.6 µM); MIC ([7]; clinical strains, read-out: MIC against selected E. coli and E. cloacae strains): 0.1 to 0.8 µg/mL (≈ 0.221 to 1.77 µM); MIC (S. aureus 5595): 0.4 µg/mL (≈ 0.884 µM); MIC (P. aeruginosa ATCC 15442): 3.2 µg/mL (≈ 7.08 µM)
